Tests used:
[1] = target: T1, human serotonin 5-HT transporter (SERT) (Homo sapiens, UniProt P31645); experiment: Serotonin transporter binding assay ([3H]imipramine, CEREP); conditions: ligand [3H]imipramine, transfected CHO cells, HCl salts
T1 construct: host or cells: CHO cells, cell membrane homogenates
Method: (§1) Transporter Binding and Cellular Uptake. All described monoamine transporter binding studies as well as cellular uptake assays were performed in duplicate by CEREP (Celle l'Evescault, France) and are described below. Further details of all assays performed may be accessed at the CEREP web site (world-wide-web at cerep.com). Cellular-based assays were conducted to provide complementary in vitro functional measures to complement the standard transporter assays as well as to provide direct comparisons of the homologs IPH with MPH with regard to DA, NE, and 5-HT uptake in synaptosomal preparations. The concentration of MPH, EPH, and IPH utilized in these studies was 10 μM, which represents a generally accepted screening concentration when evaluating compounds in this manner.
Serotonin Transporter Binding Assay. […] Briefly, cell membrane homogenates were incubated for 90 min at 4° C. with 2 nM of [^3H]imipramine in the absence and presence of each of the assessed compounds. Nonspecific binding was determined in the presence of 10 μM of imipramine. […] The filters were then dried and measured for radioactivity via scintillation counter. The standard reference compound was the TCA imipramine, which was tested in each experiment at several concentrations to generate a competition curve from which its IC50 was calculated.

[2] = test system: DA uptake, synaptosomes prepared from the rat striatum; experiment: Dopamine uptake into synaptosomes; assay type: cell-based
Method: as §1, with “preparations.” for “preparations. The concentration of MPH, EPH, and IPH utilized in these studies was 10 μM, which represents a generally accepted screening concentration when evaluating compounds in this manner.”
Dopamine Uptake. The evaluation of the effects of the two compounds on DA uptake again utilized synaptosomes but this time prepared from the rat striatum. […] After incubation, the samples were filtered, counted, and the results expressed as a percent inhibition of the control uptake of [^3H]dopamine by scintillation count. The standard inhibitory reference compound was GBR12909, which was tested in each experiment at several concentrations to obtain an inhibition curve from which its IC50 value was calculated.

[3] = test system: 5-HT uptake, synaptosomes prepared from the rat brain; experiment: Serotonin uptake into synaptosomes; assay type: cell-based
Method: as §1, with “preparations.” for “preparations. The concentration of MPH, EPH, and IPH utilized in these studies was 10 μM, which represents a generally accepted screening concentration when evaluating compounds in this manner.”
Serotonin Uptake. The assessment of the relative effects of IPH and MPH on 5-HT uptake utilized measures of [^3H]5-HT incorporation into synaptosomes prepared from the rat brain. […] Following incubation, the samples were filtered, counted using a scintillation instrument, and the results expressed as a percent inhibition of the control uptake of [^3H]5-HT. The standard inhibitory reference compound was the TCA imipramine, which was tested in each experiment at several concentrations to obtain an inhibition curve from which its IC50 value was calculated.

[4] = target: T2, human carboxylesterase 1 (hCES1) (Homo sapiens, UniProt P23141); experiment: Hydrolysis to ritalinic acid by recombinant hCES1 (s9 fraction of transfected cells); assay type: in vitro ADME; conditions: 1 mM substrate, 60 min
T2 construct: expressed in transfected cells
T2 sequence (P23141 18-567): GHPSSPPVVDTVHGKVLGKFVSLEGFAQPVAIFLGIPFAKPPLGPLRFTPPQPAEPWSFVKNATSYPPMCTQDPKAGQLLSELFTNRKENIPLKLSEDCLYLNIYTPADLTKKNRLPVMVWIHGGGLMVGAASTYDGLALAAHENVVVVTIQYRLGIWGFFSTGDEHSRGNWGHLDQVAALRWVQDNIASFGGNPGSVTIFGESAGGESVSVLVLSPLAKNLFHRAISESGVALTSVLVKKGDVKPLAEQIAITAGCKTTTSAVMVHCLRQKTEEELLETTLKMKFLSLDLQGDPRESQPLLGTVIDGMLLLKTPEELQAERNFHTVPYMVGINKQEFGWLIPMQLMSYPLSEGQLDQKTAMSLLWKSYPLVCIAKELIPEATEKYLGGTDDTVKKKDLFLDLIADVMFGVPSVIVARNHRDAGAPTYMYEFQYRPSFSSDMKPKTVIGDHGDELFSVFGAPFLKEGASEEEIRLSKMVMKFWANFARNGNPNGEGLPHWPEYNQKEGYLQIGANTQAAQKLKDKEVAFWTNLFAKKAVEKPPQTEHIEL
Method: (§2) FIG. 2—Hydrolysis of methylphenidate (MPH) and isopropylphenidate (IPH) by recombinant human CES1, HLM, HIM. After incubation with CES 1 transfected human cells, HLM, and HIM at 37° C. for 60 min, the metabolite RA produced via hydrolysis of MPH and IPH was determined by HPLC. Data are presented as mean±SEM of 3 to 6 independent experiments.
(§3) Determination of Relative Hydrolytic Rates of MPH and IPH. The assessment of relative rates of hydrolysis of the two ester compounds utilized both cell culture and human liver microsomes (HLM) and human intestinal microsomes (HIM). The human carboxylesterase 1 (hCES1) s9 fraction was prepared utilizing a novel method developed in the inventors' laboratory previously (Zhu et al., 2008). Hydrolysis of IPH and MPH by hCES1, HLM, and human intestinal microsomes was assessed by incubating the substrates with the respective enzymes and measuring the formation of the major metabolite RA formed via ester hydrolysis. Briefly, 50 μl of freshly prepared substrates (IPH and MPH) was mixed with 50 μl of enzymes in 1.5 ml Eppendorf tubes yielding a total volume of 100 μl. […] Concentrations of the primary hydrolytic product of the two compounds, RA were determined utilizing a validated HPLC method previously described.

[5] = test system: human intestinal microsomes (HIM); experiment: Hydrolysis to ritalinic acid by human intestinal microsomes; assay type: in vitro ADME; conditions: 1 mM substrate, 0.2 mg/ml HIM, 37° C., 60 min
Method: as §2, §3

T1 sequence (P31645 whole entry): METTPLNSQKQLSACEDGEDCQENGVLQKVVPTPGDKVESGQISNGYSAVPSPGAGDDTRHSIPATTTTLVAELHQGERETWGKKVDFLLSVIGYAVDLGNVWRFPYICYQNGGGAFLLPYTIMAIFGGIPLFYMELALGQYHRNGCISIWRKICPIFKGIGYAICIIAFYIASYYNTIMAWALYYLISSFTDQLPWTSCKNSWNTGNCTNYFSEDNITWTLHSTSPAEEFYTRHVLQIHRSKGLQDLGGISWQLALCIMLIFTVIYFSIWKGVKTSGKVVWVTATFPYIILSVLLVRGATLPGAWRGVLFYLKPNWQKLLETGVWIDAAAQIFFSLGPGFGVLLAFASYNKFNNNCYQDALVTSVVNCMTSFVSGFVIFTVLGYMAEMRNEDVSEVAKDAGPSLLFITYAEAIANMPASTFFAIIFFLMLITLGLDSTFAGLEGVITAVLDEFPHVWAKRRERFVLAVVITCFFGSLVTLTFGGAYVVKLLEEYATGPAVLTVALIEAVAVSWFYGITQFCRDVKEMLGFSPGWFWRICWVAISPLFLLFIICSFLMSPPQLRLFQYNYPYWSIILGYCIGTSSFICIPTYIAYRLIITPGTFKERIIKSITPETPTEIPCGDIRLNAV

CC(C)OC(=O)C(c1ccccc1)C1CCCCN1 (racemic) [IPH, dl-threo-α-phenyl-2-piperidineacetic acid isopropyl ester]
% inhibition of control specific binding, SERT (h) ([1]; 10 μM): 20% | % inhibition of control specific binding; [3H]DA incorporation into synaptosomes ([2]; 10 μM, rat striatum synaptosomes): 96% | % inhibition of control specific binding; [3H]5-HT incorporation into synaptosomes ([3]; 10 μM): 28% | substrate quality for hCES1 hydrolysis ([4]; 37° C.): poor substrate of hCES1 | catalytic activity of HIM on hydrolysis [5]: extremely low

COC(=O)C(c1ccccc1)C1CCCCN1 (racemic) [MPH, dl-threo-methylphenidate, reference compound]
inhibition at 10 µM ([1]; read-out: % inhibition of control specific binding, SERT (h)): 6% | inhibition at 10 µM ([2]; Rattus norvegicus, read-out: % inhibition of control specific binding, [3H]DA incorporation into synaptosomes): 90% | inhibition at 10 µM ([3]; read-out: % inhibition of control specific binding, [3H]5-HT incorporation into synaptosomes): 35% | catalytic efficiency of hCES1-mediated hydrolysis, MPH relative to IPH ([4]; 0.5 mg/ml hCES1, 37° C., RA formation by HPLC): approximately 10 fold | catalytic activity of HIM on hydrolysis [5]: extremely low

From patent publication US20120245201A1, “Isopropylphenidate for Treatment of Attention-Deficit/Hyperactivity Disorder and Fatigue-Related Disorders and Conditions” (priority 2009, published 2012)
